Key:
Rhodotorula rubra [1] = conditions: fluorescence extinction at 254 nm; result in words
Method: 200 ml of deionised water, 10 g of Sabouraud 2% glucose broth and 0.11 g of Gelrite® are boiled until sterile. The test organism is then added in the form of a lyophilisate or living culture and pre-incubated for 3 hours at 35° C.
The developed TLC plate is dipped briefly into the fungal suspension, and excess suspension is removed from the base of the plate. The TLC plate is subsequently incubated for 20 hours at room temperature in a can lined with moist paper.
The evaluation is carried out by fluorescence extinction at 254 nm.

Rhodotorula rubra [2] = assay: Bioautographic detection of various fungicides on TLC plate, staining with optical brightener, evaluation at 366 nm; type: cell-based; parameters: key to Zone of inhibition 2 ppb / Zone of inhibition 500 ppt / Zone of inhibition 100 ppt: −: no zone of inhibition; +: small zone of inhibition; ++: clearly visible zone of inhibition; conditions: for Zone of inhibition 2 ppb / Zone of inhibition 100 ppt / Zone of inhibition 500 ppt: optical brightener, 366 nm, 20 hours incubation
Method: The evaluation is carried out by staining with optical brightener (0.04% of Blankophor® BA 267% from Bayer AG, Germany, in 0.1 mol/l NaOH solution). To this end, the TLC plate is dried, wetted with the stain solution and subsequently stored for 5 minutes at room temperature. The evaluation is carried out at 366 nm. The zones of inhibition are evident as dark spots against a fluorescent background.

| SMILES | zone of inhibition with Rf about 1.0 (Rhodotorula rubra [1]) | Zone of inhibition 2 ppb (Rhodotorula rubra [2]) | Zone of inhibition 100 ppt (Rhodotorula rubra [2]) | Zone of inhibition 500 ppt (Rhodotorula rubra [2]) | Detection limit (Rhodotorula rubra [2]; also printed as 2 μg/kg) | zone of inhibition on the starting line (Rf=0) (Rhodotorula rubra [1]) | Detection limit (Rhodotorula rubra [2]; also printed as 500 ng/kg) |
| --- | --- | --- | --- | --- | --- | --- | --- |
| CCC[CH2][Sn]([Cl])([CH2]CCC)[CH2]CCC [F1, Tributyltin Chloride] | evident |  |  |  |  |  |  |
| CC(Cc1ccc(C(C)(C)C)cc1)CN1C[C@@H](C)O[C@@H](C)C1 (some centres unmarked) [A1, fenpropimorph] |  | ++ | − | − | 2 ppb (2 μg/kg) |  |  |
| CCC[CH2][Sn]([Cl])([CH2]CCC)[CH2]CCC [F2, Tributyltin Chloride] |  |  |  |  |  | evident |  |
| CCCC1COC(Cn2cncn2)(c2ccc(Cl)cc2Cl)O1 (centres unmarked) [A3, propiconazole] |  | ++ | − | + |  |  | 500 ppt (500 ng/kg) |
| C[Si](Cn1cncn1)(c1ccc(F)cc1)c1ccc(F)cc1 [A2, flusilazole] |  | ++ | − | + |  |  | 500 ppt (500 ng/kg) |
